Laboratory results reported in US8772500B2, “TRPV3 modulators” (AbbVie Inc., priority 2011, dated 2014).

Assays:
[1] = target: T1, human TRPV3 (Homo sapiens, UniProt Q8NET8); assay: In vitro antagonism of recombinant human TRPV3 activation (FLIPR Tetra calcium assay, 2-APB as agonist); format: cell-based; conditions: HEK293 cells stably expressing human TRPV3; 2-APB 80 μM; range class; read-out: IC50 (reported range)
T1 construct: expressed in transfected cells
T1 sequence (Q8NET8 1-790): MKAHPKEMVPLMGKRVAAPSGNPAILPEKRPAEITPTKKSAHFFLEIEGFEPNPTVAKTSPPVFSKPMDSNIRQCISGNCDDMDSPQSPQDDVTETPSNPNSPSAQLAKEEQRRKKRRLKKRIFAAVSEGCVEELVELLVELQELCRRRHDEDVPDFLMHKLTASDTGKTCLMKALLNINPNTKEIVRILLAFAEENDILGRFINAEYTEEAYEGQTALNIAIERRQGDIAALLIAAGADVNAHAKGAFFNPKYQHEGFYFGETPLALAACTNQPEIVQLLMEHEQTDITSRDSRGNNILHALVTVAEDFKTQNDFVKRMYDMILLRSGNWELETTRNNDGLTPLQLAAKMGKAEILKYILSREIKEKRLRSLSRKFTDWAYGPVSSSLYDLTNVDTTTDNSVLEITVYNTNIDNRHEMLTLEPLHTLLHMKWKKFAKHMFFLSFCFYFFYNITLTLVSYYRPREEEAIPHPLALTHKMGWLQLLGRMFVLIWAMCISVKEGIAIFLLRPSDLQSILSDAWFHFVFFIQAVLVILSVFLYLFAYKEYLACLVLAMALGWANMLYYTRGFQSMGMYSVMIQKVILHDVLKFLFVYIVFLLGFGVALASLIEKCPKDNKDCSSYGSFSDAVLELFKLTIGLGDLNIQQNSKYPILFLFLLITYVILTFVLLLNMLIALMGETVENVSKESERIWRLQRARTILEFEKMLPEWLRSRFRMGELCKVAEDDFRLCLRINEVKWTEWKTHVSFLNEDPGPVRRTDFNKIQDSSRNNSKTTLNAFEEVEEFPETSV
In short: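 Readout is FLIPR fluorescence, max minus min as percent of uninhibited 2-APB response, giving IC50 (usually mean of ≥2 runs). Stable human TRPV3 HEK293 cells, Calcium-4 dye-loaded, got test compound then, three minutes later, 80 μM 2-APB (EC80); run length 10 min.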

[2] = In vitro rat microsomal stability assay; format: in vitro ADME, rat (Sprague-Dawley); conditions: Sprague-Dawley, rat, 0.5 h, 0.5 μM, pH 7.4
In short: (§1)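 Metabolic stability is assessed by incubating test compound with liver microsomes at 37 °C in the presence of NADPH. Rat assays use Sprague-Dawley microsomes, while human assays use human microsomes.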

[3] = In vitro human microsomal stability assay; format: in vitro ADME; conditions: human, 0.5 h, 0.5 μM, pH 7.4
In short: as §1

Row | SMILES | IC50 [1] [µM] | RAT MICROSOMAL STABILITY (% REMAINING AFTER 30 MINUTES) [2] [%] | HUMAN MICROSOMAL STABILITY (% REMAINING AFTER 30 MINUTES) [3] [%]
1 | N[C@@H]1CCC[C@H]1[C@@H](O)C1(c2cccc(C(F)(F)F)c2)CCC1 [Example 227, (R)-[(1R,2R)-2-aminocyclopentyl]{1-[3-(trifluoromethyl)phenyl]-cyclobutyl}methanol] | 0.05 to 0.5 | 42 | >85
2 | CN[C@@H]1CCC[C@H]1[C@@H](O)C1(c2ccc(Cl)c(Cl)c2)CCC1 [Example 228, (R)-[1-(3,4-dichlorophenyl)cyclobutyl][(1R,2R)-2-(methylamino)-cyclopentyl]methanol] | 1.1 to 5 | 25 | 70
3 | N[C@H]1CCC[C@H]1[C@@H](O)C1(c2ccc(OC(F)(F)F)cc2)CCC1 [Example 229, (R)-[(1R,2S)-2-aminocyclopentyl]{1-[4-(trifluoromethoxy)phenyl]-cyclobutyl}methanol] | 1.1 to 5 | 80 | >85
4 | O[C@H](c1ccccn1)C1(c2ccc(Cl)c(Cl)c2)CC1 [Example 231, (S)-[1-(3,4-dichlorophenyl)cyclopropyl](pyridin-2-yl)methanol] | 0.501 to 1 | 17 | 4.0
5 | OC(c1ccccn1)C1(c2cccc(C(F)(F)F)n2)CCC1 (stereo not drawn) [Example 234, pyridin-2-yl{1-[6-(trifluoromethyl)pyridin-2-yl]cyclobutyl}methanol] | 5.1 to 20 | 23 | 19
6 | OC(c1ccccn1)C1(c2cccc(OC(F)(F)F)c2)CC2(C1)OCCO2 (stereo not drawn) [Example 235, pyridin-2-yl{2-[3-(trifluoromethoxy)phenyl]-5,8-dioxaspiro[3.4]oct-2-yl}-methanol] | 1.1 to 5 | <0.01 | 20
7 | O=C1CC(c2cccc(OC(F)(F)F)c2)(C(O)c2ccccn2)C1 (stereo not drawn) [Example 237, 3-[hydroxy(pyridin-2-yl)methyl]-3-[3-(trifluoromethoxy)phenyl]-cyclobutanone] | 1.1 to 5 | 50 | 51
8 | O[C@H](c1ccccn1)C1(c2cccc(C(F)(F)F)n2)CCC1 [Example 238, (S)-pyridin-2-yl{1-[6-(trifluoromethyl)pyridin-2-yl]cyclobutyl}methanol] | 1.1 to 5 | 21 | 7.1
9 | O[C@H](c1ccccn1)C1(c2ccnc(C(F)(F)F)c2)CCC1 [Example 240, (S)-pyridin-2-yl{1-[2-(trifluoromethyl)pyridin-4-yl]cyclobutyl}methanol] | 0.501 to 1 | 38 | 50
10 | OC(c1ccccn1)C1(c2cccc(C(F)(F)F)c2)CC2(C1)OCCO2 (stereo not drawn) [Example 242, pyridin-2-yl{2-[3-(trifluoromethyl)phenyl]-5,8-dioxaspiro[3.4]oct-2-yl}-methanol] | 5.1 to 20 | <0.01 | 45
11 | CC1(O)CC(c2cccc(C(F)(F)F)c2)(C(O)c2ccccn2)C1 [Example 244, trans-3-[(S)-hydroxy(pyridin-2-yl)methyl]-1-methyl-3-[3-(trifluoromethyl)-phenyl]cyclobutanol] | 1.1 to 5 | 77 | 80
12 | O=C1CC(c2cccc(C(F)(F)F)c2)(C(O)c2ccccn2)C1 (stereo not drawn) [Example 245, 3-[hydroxy(pyridin-2-yl)methyl]-3-[3-(trifluoromethyl)phenyl]cyclobutanone] | 1.1 to 5 | 72 | 57
13 | OC1CC(c2ccc(Cl)c(Cl)c2)(C(O)c2ccccn2)C1 [Example 247, cis-3-(3,4-dichlorophenyl)-3-[(R)-hydroxy(pyridin-2-yl)methyl]cyclobutanol] | 1.1 to 5 | >85 | 62
14 | ON=C1CC(c2ccc(OC(F)(F)F)cc2)([C@H](O)c2ccccn2)C1 (stereo partly drawn) [Example 248, (S)-{3-(hydroxyimino)-1-[4-(trifluoromethoxy)phenyl]cyclobutyl}(pyridin-2-yl)methanol] | 1.1 to 5 | 29 | 70
15 | CON=C1CC(c2ccc(OC(F)(F)F)cc2)([C@H](O)c2ccccn2)C1 (stereo partly drawn) [Example 249, (S)-{3-(methoxyimino)-1-[4-(trifluoromethoxy)phenyl]cyclobutyl}(pyridin-2-yl)methanol] | 1.1 to 5 | 3.2 | 61
16 | C[C@]1(O)C[C@@](c2ccc(OC(F)(F)F)cc2)([C@@H](O)c2ccccn2)C1 [Example 250, cis-3-[(R)-hydroxy(pyridin-2-yl)methyl]-1-methyl-3-[4-(trifluoromethoxy)-phenyl]cyclobutanol] | 5.1 to 20 | 70 | 70
17 | Cc1ccccc1CC1(C(O)c2ccccn2)CCC1 (stereo not drawn) [Example 253, [1-(2-methylbenzyl)cyclobutyl](pyridin-2-yl)methanol] | 1.1 to 5 | 0.017 | 0.21
18 | OC(c1ccccn1)C1(Cc2cccc(F)c2)CCC1 (stereo not drawn) [Example 254, [1-(3-fluorobenzyl)cyclobutyl](pyridin-2-yl)methanol] | 1.1 to 5 | 0.57 | 1.1
19 | OC(c1ccccn1)C1(c2ccc(F)c(Cl)c2)CC2(C1)OCCO2 (stereo not drawn) [Example 255, [2-(3-chloro-4-fluorophenyl)-5,8-dioxaspiro[3.4]oct-2-yl](pyridin-2-yl)-methanol] | 5.1 to 20 | <0.01 | 54
20 | O=C1CC(c2ccc(F)c(Cl)c2)(C(O)c2ccccn2)C1 (stereo not drawn) [Example 258, 3-(3-chloro-4-fluorophenyl)-3-[hydroxy(pyridin-2-yl)methyl]cyclobutanone] | 5.1 to 20 | 53 | 70
21 | OC(c1ccccn1)C1(C2=CCC(F)(F)CC2)CCC1 (stereo not drawn) [Example 260, [1-(4,4-difluorocyclohex-1-en-1-yl)cyclobutyl](pyridin-2-yl)methanol] | 5.1 to 20 | <0.01 | 12
22 | OC(c1ccccn1)C1(C2=CCCC(C(F)(F)F)C2)CCC1 (stereo not drawn) [Example 261, pyridin-2-yl{1-[5-(trifluoromethyl)cyclohex-1-en-1-yl]cyclobutyl}methanol] | 1.1 to 5 | <0.01 | 0.01
23 | CC(C)(C)OC(=O)N1CCC(C2(C(O)c3ccccn3)CCC2)C1 (stereo not drawn) [Example 265, tert-butyl 3-{1-[hydroxy(pyridin-2-yl)methyl]cyclobutyl}pyrrolidine-1-carboxylate] | 5.1 to 20 | 0.059 | 43
24 | OC(c1ccccn1)C1(c2nc3ccccc3s2)CCC1 (stereo not drawn) [Example 266, [1-(1,3-benzothiazol-2-yl)cyclobutyl](pyridin-2-yl)methanol] | 1.1 to 5 | 0.14 | 46
25 | CN(C)N=C1CC(c2ccc(OC(F)(F)F)cc2)([C@H](O)c2ccccn2)C1 (stereo partly drawn) [Example 267, (S)-{3-(dimethylhydrazinylidene)-1-[4-(trifluoromethoxy)phenyl]-cyclobutyl}(pyridin-2-yl)methanol] | 1.1 to 5 | 10 | 64
26 | OC(c1ccccn1)C1(c2nc3ccccc3o2)CCC1 (stereo not drawn) [Example 271, [1-(1,3-benzoxazol-2-yl)cyclobutyl](pyridin-2-yl)methanol] | 1.1 to 5 | 8.6 | 62
